{
  "source": "patent US7964623B2",
  "about": "“Tricyclic benzopyrane compound” (Nissan Chemical Industries Ltd., priority 2004, dated 2011)",
  "key": {"atrium": {"system": "atrium", "test": "Effects on the atrial effective refractory period (S1-S2 extrastimulus technique during bilateral vagal nerve stimulation) in anesthetized beagles", "assay_type": "in vivo", "conditions": "intravenous, from 5 minutes after administration, basic cycle length 300 msec", "description": "Effects on the Effective Refractory Period\nBeagles were anesthetized with pentobarbital sodium and thoracotomy was done along the median line under a respirator and the incision was made on the pericardium to expose the heart. An electrocardiogram (ECG) was recorded using bipolar electrodes attached to the surface of the right atrial free wall, right atrial auricle, and right ventricular free wall. The vagal nerves were stimulated using an electrostimulation device with Nichrome wires inserted into the vagal nerves in the neck bilaterally. The conditions for electrostimulation to the vagal nerves were set such that the RR intervals on ECG were prolonged by about 100 msec compared with those before the stimulation was started.\nAtrial and ventricular effective refractory periods were determined by S1-S2 extrastimulus technique at basic cycle length of 300 msec during bilateral vagal nerve stimulation, using programmable electric stimulator. A train of 10 basic stimuli (S1) was followed by a premature extrastimulus (S2) at 2 times diastolic threshold.\nFor evaluation of drug effects, the atrial and ventricular effective refractory periods were determined before drug administration, then respective compound was administrated intravenously at the dose of 0.3 mg/kg or 0.6 mg/kg, and the atrial and ventricular effective refractory periods were determined from 5 minutes after the administration.\nThe results were shown as the prolongation time on the atrial and ventricular effective refractory periods, i.e. [effective refractory period after drug administration]−[effective refractory period before drug administration] (msec)."}},
  "data": [
    {"smiles": "Cc1cc(Cl)nc2cc3c(cc12)OC(C)(C)[C@@H](O)[C@@H]3NCCc1ccccc1.O=C(O)/C=C\\C(=O)O", "note": "(relative stereo) [Synthesis Example 50, (3S*,4R*)-7-chloro-2,2,9-trimethyl-4-[(2-phenylethyl)amino]-3,4-dihydro-2H-pyrano[2,3-g]quinolin-3-ol 1 maleate]", "values": [
      {"measurement": "melting point", "value": "240 to 242", "unit": "°C"}
    ]},
    {"smiles": "Cc1cc(C)c2cc3c(cc2n1)[C@@H](NCCc1ccccc1)[C@H](O)C(C)(C)O3.O=C(O)/C=C\\C(=O)O", "note": "(relative stereo) [Synthesis Example 51, (3R*,4R*)-2,2,7,9-tetramethyl-4-[(2-phenethyl)amino]-3,4-dihydro-2H-pyrano[2,3-g]quinolin-3-ol 1 maleate]", "values": [
      {"measurement": "melting point", "value": "215 to 216 °C (dec.)"}
    ]},
    {"smiles": "Cc1cc(CO)nc2cc3c(cc12)OC(C)(C)[C@H](O)[C@H]3NCCc1ccc(F)cc1", "note": "(relative stereo) [Synthesis Example 76, (3R*,4S*)-4-{[2-(4-fluorophenyl)ethyl]amino}-7-hydroxymethyl-2,2,9-trimethyl-3,4-dihydro-2H-pyrano[2,3-g]quinolin-3-ol]", "values": [
      {"measurement": "melting point", "value": "147 to 152", "unit": "°C"}
    ]},
    {"smiles": "CC1(C)Oc2ccc3ncccc3c2C(NCCc2ccccc2)C1O", "note": "(stereo not drawn) [Synthesis Example 17, (1R*,2R*)-3,3-dimethyl-1-[(2-phenylethyl)amino]-2,3-dihydro-1H-pyrano[3,2-f]quinolin-2-ol]", "values": [
      {"measurement": "melting point", "value": "170 to 171", "unit": "°C"}
    ]},
    {"smiles": "Cc1cc(CN)nc2cc3c(cc12)OC(C)(C)[C@H](O)[C@H]3NCCc1ccccc1.O=C(O)/C=C\\C(=O)O", "note": "(relative stereo) [Synthesis Example 83, (3R*,4S*)-7-aminomethyl-2,2,9-trimethyl-4-[(2-phenylethyl)amino]-3,4-dihydro-2H-pyrano[2,3-g]quinolin-3-ol 2 maleate]", "values": [
      {"measurement": "melting point", "value": "136 to 140", "unit": "°C"}
    ]},
    {"smiles": "Cc1cc(Cl)nc2cc3c(cc12)OC(C)(C)[C@H](O)[C@H]3NCCC1CCOCC1.Cl", "note": "(relative stereo)", "values": [
      {"measurement": "melting point", "value": "318 to 320 °C (dec.)"}
    ]},
    {"smiles": "CC1(C)Oc2ccc3nc(C#N)ccc3c2[C@@H](NCCc2ccccc2)[C@@H]1O", "note": "(racemic) [Synthesis Example 10, (±)-trans-2-Hydroxy-3,3-dimethyl-1-[(2-phenylethyl)amino]-2,3-dihydro-1H-pyrano[3,2-f]quinoline-8-carbonitrile]", "values": [
      {"measurement": "melting point", "value": "93 to 96", "unit": "°C"}
    ]},
    {"smiles": "Cc1cnc2cc3c(cc2n1)OC(C)(C)[C@H](O)[C@H]3NCCc1ccccc1.O=C(O)/C=C\\C(=O)O", "note": "(relative stereo) [Synthesis Example 68, (3R*,4S*)-2,2,8-trimethyl-4-[(2-phenylethyl)amino]-3,4-dihydro-2H-pyrano[2,3-g]quinoxalin-3-ol 1 maleate]", "values": [
      {"measurement": "melting point", "value": "189 to 192 °C (dec.)"}
    ]},
    {"smiles": "Cc1cc(Cl)nc2cc3c(cc12)OC(C)(C)[C@H](O)[C@H]3NCCc1ccc(F)cc1", "note": "(relative stereo) [Synthesis Example 23, (3R*,4S*)-7-chloro-4-{[2-(4-fluorophenyl)ethyl]amino}-2,2,9-trimethyl-3,4-dihydro-2H-pyrano[2,3-g]quinolin-3-ol]", "values": [
      {"measurement": "Atrial Refractory Period (prolongation time on the atrial effective refractory period)", "setting": "atrium; 0.3 mg/kg", "value": 22, "unit": "ms"}
    ]},
    {"smiles": "CC1(C)Oc2cc3c(cc2C(NCCc2ccccc2)C1O)N(Cc1ccccc1)C(=O)C3", "note": "(stereo not drawn) [Synthesis Example 90, 1-Benzyl-7-hydroxy-6,6-dimethyl-8-phenetylamino-3,6,7,8-tetrahydro-1H-pyrano[2,3-f]indole-2-one]", "values": [
      {"measurement": "melting point", "value": "195 °C (dec.)"}
    ]},
    {"smiles": "Cc1cc(C(N)=O)nc2cc3c(cc12)OC(C)(C)[C@H](O)[C@H]3NCCc1ccccc1", "note": "(relative stereo) [Synthesis Example 15, (3R*,4S*)-3-hydroxy-2,2,9-trimethyl-4-[(2-phenylethyl)amino]-3,4-dihydro-2H-pyrano[2,3-g]quinoline-7-carboxamide]", "values": [
      {"measurement": "melting point", "value": "168 to 169", "unit": "°C"}
    ]},
    {"smiles": "Cc1cc(Cl)nc2cc3c(cc12)OC(C)(C)[C@H](O)[C@H]3NCCC1CCCC1", "note": "(relative stereo) [Synthesis Example 47, (3R*,4S*)-7-chloro-4-[2-(cyclopentylethyl)amino]-2,2,9-trimethyl-3,4-dihydro-2H-pyrano[2,3-g]quinolin-3-ol]", "values": [
      {"measurement": "Atrial Refractory Period (prolongation time on the atrial effective refractory period)", "setting": "atrium; 0.3 mg/kg", "value": 24, "unit": "ms"}
    ]},
    {"smiles": "Cc1cc(O)nc2cc3c(cc12)OC(C)(C)[C@H](O)[C@H]3NCCc1ccccc1.O=C(O)/C=C\\C(=O)O", "note": "(relative stereo) [Synthesis Example 85, (3R*,4S*)-2,2,9-trimethyl-4-[(2-phenylethyl)amino)]-3,4-dihydro-2H-pyrano[2,3-g]quinolin-3,7-diol 3/2 maleate]", "values": [
      {"measurement": "melting point", "value": "184 to 188 °C (dec.)"}
    ]},
    {"smiles": "Cc1cc(Cl)[n+]([O-])c2cc3c(cc12)OC(C)(C)[C@H](O)[C@H]3NCCc1ccc(F)cc1.Cl", "note": "(relative stereo)", "values": [
      {"measurement": "melting point", "value": "193 to 198 °C (dec.)"}
    ]},
    {"smiles": "CC1(C)Oc2cc3c(cc2[C@H](NCCc2ccccc2)[C@H]1O)OCC(=O)N3", "note": "(relative stereo) [Synthesis Example 71, (7R*,8S*)-7-hydroxy-6,6-dimethyl-8-(2-phenylethyl)amino]-4,6,7,8-tetrahydro-1,5-dioxa-4-aza-anthracene-3-one]", "values": [
      {"measurement": "Atrial Refractory Period (prolongation time on the atrial effective refractory period)", "setting": "atrium; 0.3 mg/kg", "value": 31, "unit": "ms"}
    ]},
    {"smiles": "CC1(C)Oc2ccc3nc(C(N)=O)ccc3c2[C@@H](NCCc2ccccc2)[C@@H]1O", "note": "(racemic) [Synthesis Example 11, (±)-trans-2-Hydroxy-3,3-dimethyl-1-[(2-phenylethyl)amino]-2,3-dihydro-1H-pyrano[3,2-f]quinoline-8-carboxamide]", "values": [
      {"measurement": "melting point", "value": "197 to 199", "unit": "°C"}
    ]},
    {"smiles": "Cc1cc(Cl)nc2cc3c(cc12)OC(C)(C)[C@H](O)[C@H]3NCCc1ccc(Cl)cc1", "note": "(relative stereo) [Synthesis Example 25, (3R*,4S*)-7-chloro-4-{[2-(4-chlorophenyl)ethyl]amino}-2,2,9-trimethyl-3,4-dihydro-2H-pyrano[2,3-g]quinolin-3-ol]", "values": [
      {"measurement": "Atrial Refractory Period (prolongation time on the atrial effective refractory period)", "setting": "atrium; 0.3 mg/kg", "value": 27, "unit": "ms"}
    ]},
    {"smiles": "CC1(C)Oc2cc3c(CO)ccnc3cc2[C@H](NCCc2ccccc2)[C@H]1O.O=C(O)/C=C\\C(=O)O", "note": "(relative stereo) [Synthesis Example 84, (3R*,4S*)-9-hydroxymethyl-2,2-dimethyl-4-[(2-phenylethyl)amino)]-3,4-dihydro-2H-pyrano[2,3-g]quinolin-3-ol 1 maleate]", "values": [
      {"measurement": "melting point", "value": "163 to 169 °C (dec.)"}
    ]},
    {"smiles": "Cc1cnc2cc3c(cc2c1C)OC(C)(C)C(O)C3NCCc1ccccc1.O=C(O)/C=C\\C(=O)O", "note": "(racemic) [Synthesis Example 3, (±)-trans-2,2,8,9-Tetramethyl-4-[(2-phenylethyl)amino]-3,4-dihydro-2H-pyrano[2,3-g]quinolin-3-ol 1 maleate]", "values": [
      {"measurement": "melting point", "value": "199 to 203", "unit": "°C"}
    ]},
    {"smiles": "Cc1ccc2cc3c(cc2n1)[C@H](NCCc1ccccc1)[C@@H](O)C(C)(C)O3.O=C(O)/C=C\\C(=O)O", "note": "(relative stereo) [Synthesis Example 13, (3R*,4S*)-2,2,7-trimethyl-4-[(2-phenylethyl)amino]-3,4-dihydro-2H-pyrano[2,3-g]quinolin-3-ol 1 maleate]", "values": [
      {"measurement": "melting point", "value": "214 to 217 °C (dec.)"}
    ]},
    {"smiles": "CCCCCN[C@H]1c2cc3c(cc2OC(C)(C)[C@@H]1O)c(C)cc(Cl)[n+]3[O-].Cl", "note": "(relative stereo)", "values": [
      {"measurement": "melting point", "value": "226 to 230 °C (dec.)"}
    ]},
    {"smiles": "Cc1cc(C#N)nc2cc3c(cc12)OC(C)(C)[C@H](O)[C@H]3NCCc1ccccc1.O=C(O)/C=C\\C(=O)O", "note": "(relative stereo) [Synthesis Example 14, (3R*,4S*)-3-hydroxy-2,2,9-trimethyl-4-[(2-phenylethyl)amino]-3,4-dihydro-2H-pyrano[2,3-g]quinoline-7-carbonitrile 1 maleate]", "values": [
      {"measurement": "Atrial Refractory Period (prolongation time on the atrial effective refractory period)", "setting": "atrium; 0.3 mg/kg", "value": 27, "unit": "ms"}
    ]},
    {"smiles": "CC1(C)Oc2cc3c(cc2C(NCCc2ccccc2)C1O)NC(=O)CO3", "note": "(stereo not drawn) [Synthesis Example 74, 7-Hydroxy-6,6-dimethyl-8-(2-phenylethylamino)-7,8-dihydro-1H,6H-4,5-dioxa-1-aza-anthracene-2-one]", "values": [
      {"measurement": "Atrial Refractory Period (prolongation time on the atrial effective refractory period)", "setting": "atrium; 0.6 mg/kg", "value": 25, "unit": "ms"}
    ]},
    {"smiles": "CC1(C)Oc2cc3nccnc3cc2[C@H](NCCc2ccccc2)[C@H]1O.O=C(O)/C=C\\C(=O)O", "note": "(relative stereo) [Synthesis Example 59, (3R*,4S*)-7,7-dimethyl-9-[(2-phenylethyl)amino]-8,9-dihydro-7H-pyrano[2,3-g]quinoxalin-8-ol 1 maleate]", "values": [
      {"measurement": "Atrial Refractory Period (prolongation time on the atrial effective refractory period)", "setting": "atrium; 0.3 mg/kg", "value": 22, "unit": "ms"}
    ]},
    {"smiles": "Cc1cc(Cl)nc2cc3c(cc12)OC(C)(C)[C@H](O)[C@H]3NCCc1cccnc1", "note": "(relative stereo) [Synthesis Example 41, (3R*,4S*)-7-chloro-2,2,9-trimethyl-4-{[2-(3-pyridyl)ethyl]amino}-3,4-dihydro-2H-pyrano[2,3-g]quinolin-3-ol]", "values": [
      {"measurement": "Atrial Refractory Period (prolongation time on the atrial effective refractory period)", "setting": "atrium; 0.3 mg/kg", "value": 31, "unit": "ms"}
    ]},
    {"smiles": "Cc1cc(Cl)nc2cc3c(cc12)OC(C)(C)[C@H](O)[C@H]3NCCc1ccc(N)cc1", "note": "(relative stereo) [Synthesis Example 26, (3R*,4S*)-4-{([2-(4-aminophenyl)ethyl]amino}-7-chloro-2,2,9-trimethyl-3,4-dihydro-2H-pyrano[2,3-g]quinolin-3-ol]", "values": [
      {"measurement": "Atrial Refractory Period (prolongation time on the atrial effective refractory period)", "setting": "atrium; 0.3 mg/kg", "value": 24, "unit": "ms"}
    ]},
    {"smiles": "Cc1cc(Cl)nc2cc3c(cc12)OC(C)(C)[C@H](O)[C@H]3NCC(O)c1ccccc1", "note": "(relative stereo) [Synthesis Example 27, (3R*,4S*)-7-chloro-4-[(2-hydroxy-2-phenylethyl)amino]-2,2,9-trimethyl-3,4-dihydro-2H-pyrano[2,3-g]quinolin-3-ol]", "values": [
      {"measurement": "Atrial Refractory Period (prolongation time on the atrial effective refractory period)", "setting": "atrium; 0.3 mg/kg", "value": 32, "unit": "ms"}
    ]}
  ]
}
